This is an account of results in patent EP0718294A1, “2-Amino-1,3-thiazepines and their use as inhibitors of the nitrogene oxide synthase” (HOECHST AKTIENGESELLSCHAFT, priority 1994, dated 1996).

Molecules are shown by their SMILES. Where a name gives a salt, the structure may show the parent alone.

The target in this assay is T1, NO-Synthase (iNOS) (Mus musculus, UniProt P29477).
T1 construct: Während der Stimulation über 4 Stunden wird die Neusynthese des NO-produzierenden Enzyms NO-Synthase (iNOS) induziert; endogenous in cells; host or cells: RAW 264.7 mouse macrophages stimulated with LPS and γ-interferon
Kind of assay: NO measurement by oxyhaemoglobin on LPS/γ-interferon-stimulated macrophages (inhibition of NO release). To be noted: Mäusemakrophagen RAW 264.7, stimulated 4 h with 140 ng LPS/ml + 5 U γIFN/ml; 120 min incubation with test substance; Extinktionsdifferenz 576-592 nm vs. stimulation control. It is filed as cell-based, Maus. The procedure: Die Hemmung der NO-Freisetzung durch die Verbindungen der allgemeinen Formel I kann auch durch NO-Messung mittels Oxyhämoglobin auf Makrophagen wie folgt bestimmt werden: Mäusemakrophagen (MM) des Stammes RAW 264.7 werden in Petrischalen (10 cm Durchmesser) angezüchtet. Als Nährmedium wird DMEM (Fa. Sigma Nr. D 5405), konditioniert mit 4 mM l-Glutamin, 3,5 g D-Glukose/l, 50 U/50 µg/ml Pen/Strep und 10 % FKS, eingesetzt unter 5 % CO2, 95 % Luftfeuchtigkeit, 37°C. Die subkonfluenten Zellen werden mit dem Zellschaber abgekratzt, in Medium aufgenommen, die Zellzahl bestimmt (Zählung in Trypanblaulösung 0,2 %) und in 24-Napfplatten (1 x 10^6 Zellen/ml, 1 ml/Napf) ausgesät.
Ca. 18 Stunden nach Aussaat werden die gut adherierten Mausmakrophagen mit LPS (Lipopolysaccharid von E. coli Serotyp 0111:B4, Fa. Sigma Nr. L 2630) und γ-Interferon (γIFN, Maus rekombinant, Firma Boehringer Mannheim Nr. 1276905) stimuliert. Dazu wird das Kulturmedium von den Zellen abgesaugt und 1 ml/Napf (24-Napfplatte) Inkubationsmedium (MEM ohne Phenolrot (Biochrom F0385)), konditioniert mit 4mM Glutamin, 3,5 g Glukose/l, 3,7 g NaHCO3/l, 110 mg Natriumpyruvat/l, 50 U/50 µg/ml Pen/Strep und 5 % FKS, aufgegeben. Pro ml Inkubationsmedium werden 1 µl LPS und 1 µl γIFN pipettiert.
Daraus ergeben sich folgende Konzentrationen der Stimulatoren: 140 ng LPS/ml + 5 U γIFN/ml [formula] […]

One may read the IC50 as the concentration needed to halve the response being measured. With `NC1=NCCCCS1` [Beispiel 1, 2-Amino-4,5,6,7-tetrahydro-1,3-thiazepin-Hydrochlorid], the IC50 is 1300 nM.
